The source of these data is patent US20220347266A1, “METHOD AND MEDICINE FOR TREATING DEPRESSIVE DISORDERS” (QINGDAO PRIMEDICINE PHARMACEUTICAL CO., LTD., priority 2018, published 2022).

Where no end group is shown, it is not given here.

One experiment has as its system AMPAR. To be noted: from EP1,687,427B1; cited from earlier work.
The next experiment concerns C57 mice. Briefly: Forced swim test (FST) of mice, behavioral despair model of depressive disorder. The experiment is classed as in vivo, mouse. As to conditions: for immobility time of forced swimming mice: vs vehicle, FIG. 1. An excerpt:
Among the behavioral despair models, forced swim test of mice/rats is the most common animal model of depressive disorder to evaluate the effect of antidepressants. In this model, animals are forced to swim in water in a limited space. After struggling for many times but failing to escape, the animals may stop swimming and begin floating without struggling to escape anymore. This immobility is considered as the manifestation of behavioral despair and depression. This model has good predictive validity for antidepressants.
By using ketamine metabolite HNK as a positive control medication, the effect of compound PMS-001 on depression-like behavior of C57 mice was investigated through forced swim test 1 hour and 24 hours after single medicinal intervention. […]; (SEQ ID NO: 3). Wherein the amino acid sequence YGRKKRRQRRR (SEQ ID NO: 2), also known as Tat peptide, is a carrier peptide, and can assist the polypeptide in penetration of the blood-brain barrier. […] However, it is unknown in the art whether a C-terminal polypeptide of GluR2 such as YKEGYNVYG (SEQ ID NO: 1) can be used in the treatment of depressive disorder, specifically major depressive disorder.
The experimental animals were 6-week-old male C57 mice obtained from Shanghai SLAC Laboratory Animal Co., Ltd, with body weight of […]. They were transported to the Animal Breeding Center of Shanghai Institute of Materia Medica, Chinese Academy of Sciences (Animal production license: SCXK9 [Shanghai] 2004-0002, use license: SYXK [Shanghai] 2003-0029), and allowed to acclimatize in animal facilities for more than 3 days, with 6 individuals per cage. Mice were housed at room temperature (23±0.2° C.), with a 12 h/12 h light/dark cycle. Before the behavioral test, animals were moved to the behavior testing room 2 hours in advance for acclimation to relieve tension. […]
24 hours before administration, each mouse was placed into a cylinder tank for acclimation in the water environment for 10 min. […] Mice were videotaped for 6 minutes since being placed into water, and the immobility time for the last 4 minutes was calculated due to the fact that most animals were very active in the first two minutes (the criteria for immobility: mice stop struggling, keep immobility and make small movements to balance their bodies or float in water). […]
All data analyses were performed with spss 22 data processing software. […] Data were expressed as Mean±SEM. *: p<0.05; **: p<0.01; ***: p<0.001.

As for “YKEGYNVYG (Artificially synthesized GluR2-3Y peptide)”, in the experiment with AMPAR, the “inhibition of NMDA-mediated excessive endocytosis of AMPAR” value is reported as “proved to inhibit”.
For YGRKKRRQRRRYKEGYNVYG [PMS-001], the “immobility time of forced swimming mice” value in the experiment on C57 mice (1 hour after administration, single 10 mg/kg intraperitoneal injection) is recorded as “very significantly decrease”; with C57 mice (24 hours after administration, single 10 mg/kg intraperitoneal injection), “very significantly decrease”. Further, in the experiment with C57 mice (same dose (10 mg/kg i.p.)), the “antidepressant effect compared to positive control HNK” value was “better rapid and lasting antidepressant effect”. In addition, in the experiment on C57 mice (single 10 mg/kg intraperitoneal injection), the “onset of antidepressant effect after administration” value turned out to be 1 h.
